Assays:
Experiment in all cases: relative viability (nuclei count vs DMSO), 5 days (fraction); higher = more cells survive
CAL-12T = tested on: CAL-12T
In short: (§1)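 For relative viability, nuclei counts in treated wells were divided by those in vehicle wells. Lung cancer cell lines had been pin-tool dosed in 1536-well plates the day after seeding and cultured for 5 days, then fixed and stained in one step (final 0.05% Triton X-100, 1% formaldehyde, 1 ug/ml Hoechst) and imaged at 4×. Doses were one drug alone or a fixed anchor-drug dose plus five library-drug doses (not always all listed) in √10 steps, and values are duplicate-plate medians.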

ChaGo-K-1 = tested on: ChaGo-K-1
In short: as §1

EMC-BAC-2 = tested on: EMC-BAC-2
In short: as §1

HCC-366 = tested on: HCC-366
In short: as §1

HCC-78 = tested on: HCC-78
In short: as §1

HOP-62 = tested on: HOP-62
In short: as §1

LC-2-ad = tested on: LC-2-ad
In short: as §1

LK-2 = tested on: LK-2
In short: as §1

NCI-H1355 = tested on: NCI-H1355
In short: as §1

NCI-H1734 = tested on: NCI-H1734
In short: as §1

NCI-H1993 = tested on: NCI-H1993
In short: as §1

NCI-H2009 = tested on: NCI-H2009
In short: as §1

O=c1[nH]c2ccccc2n1C1CCN(CCCC(c2ccc(F)cc2)c2ccc(F)cc2)CC1 [Pimozide] + N=C(N)NC(=N)NCCc1ccccc1 [Phenformin] (partner 250 µM)
relative viability (CAL-12T; first compound 0.08 µM): 0.581 | relative viability (CAL-12T; first compound 0.253 µM): 0.506 | relative viability (CAL-12T; first compound 0.8 µM): 0.623 | relative viability (CAL-12T; first compound 2.53 µM): 0.496 | relative viability (CAL-12T; first compound 8 µM): 0.575 | relative viability (ChaGo-K-1; first compound 0.08 µM): 0.565 | relative viability (ChaGo-K-1; first compound 0.253 µM): 0.529 | relative viability (ChaGo-K-1; first compound 0.8 µM): 0.461 | relative viability (ChaGo-K-1; first compound 2.53 µM): 0.458 | relative viability (ChaGo-K-1; first compound 8 µM): 0.399 | relative viability (EMC-BAC-2; first compound 0.08 µM): 0.561 | relative viability (EMC-BAC-2; first compound 0.253 µM): 0.515 | relative viability (EMC-BAC-2; first compound 0.8 µM): 0.483 | relative viability (EMC-BAC-2; first compound 2.53 µM): 0.486 | relative viability (EMC-BAC-2; first compound 8 µM): 0.519 | relative viability (HCC-366; first compound 0.08 µM): 0.664 | relative viability (HCC-366; first compound 0.253 µM): 0.609 | relative viability (HCC-366; first compound 0.8 µM): 0.528 | relative viability (HCC-366; first compound 2.53 µM): 0.535 | relative viability (HCC-366; first compound 8 µM): 0.469 | relative viability (HCC-78; first compound 0.08 µM): 0.781 | relative viability (HCC-78; first compound 0.8 µM): 0.628 | relative viability (HCC-78; first compound 2.53 µM): 0.635 | relative viability (HCC-78; first compound 8 µM): 0.678 | relative viability (HOP-62; first compound 0.08 µM): 0.67 | relative viability (HOP-62; first compound 0.253 µM): 0.657 | relative viability (HOP-62; first compound 2.53 µM): 0.644 | relative viability (HOP-62; first compound 8 µM): 0.655 | relative viability (LC-2-ad; first compound 0.08 µM): 0.573 | relative viability (LC-2-ad; first compound 0.253 µM): 0.558 | relative viability (LC-2-ad; first compound 0.8 µM): 0.571 | relative viability (LC-2-ad; first compound 2.53 µM): 0.623 | relative viability (LC-2-ad; first compound 8 µM): 0.605 | relative viability (LK-2; first compound 0.08 µM): 0.501 | relative viability (LK-2; first compound 0.253 µM): 0.367 | relative viability (LK-2; first compound 2.53 µM): 0.237 | relative viability (LK-2; first compound 8 µM): 0.345 | relative viability (NCI-H1355; first compound 0.08 µM): 0.45 | relative viability (NCI-H1355; first compound 0.253 µM): 0.435 | relative viability (NCI-H1355; first compound 0.8 µM): 0.437 | relative viability (NCI-H1355; first compound 2.53 µM): 0.417 | relative viability (NCI-H1355; first compound 8 µM): 0.404 | relative viability (NCI-H1734; first compound 0.08 µM): 0.408 | relative viability (NCI-H1734; first compound 0.253 µM): 0.366 | relative viability (NCI-H1734; first compound 2.53 µM): 0.373 | relative viability (NCI-H1734; first compound 8 µM): 0.426 | relative viability (NCI-H1993; first compound 0.08 µM): 0.477 | relative viability (NCI-H1993; first compound 0.253 µM): 0.509 | relative viability (NCI-H1993; first compound 0.8 µM): 0.455 | relative viability (NCI-H1993; first compound 2.53 µM): 0.522 | relative viability (NCI-H1993; first compound 8 µM): 0.49 | relative viability (NCI-H2009; first compound 0.08 µM): 0.476 | relative viability (NCI-H2009; first compound 0.253 µM): 0.479 | relative viability (NCI-H2009; first compound 0.8 µM): 0.507
